Columns and labels:
Format in all cases: in vivo
Conditions in all cases: 250 g/ha, evaluated after 13 days
[1] = tested on: Amaranthus palmeri (AMAPA); test: Post-emergence herbicidal test, glasshouse
Procedure: (§1) Seeds of a variety of test species are sown in standard soil in pots Amaranthus palmeri (AMAPA), Amaranthus retoflexus (AMARE), Setaria faberi (SETFA), Echinochloa crus-galli (ECHCG), Ipomoea hederacea (IPOHE)). After cultivation for one day (pre-emergence) or after 8 days cultivation (post-emergence) under controlled conditions in a glasshouse (at 24/16° C., day/night; 14 hours light; 65% humidity), the plants are sprayed with an aqueous spray solution derived from the formulation of the technical active ingredient in acetone/water (50:50) solution containing 0.5% Tween 20 (polyoxyethelyene sorbitan monolaurate, CAS RN 9005-64-5). Compounds are applied at 250 g/ha unless otherwise stated. The test plants are then grown in a glasshouse under controlled conditions in a glasshouse (at 24/16° C., day/night; 14 hours light; 65% humidity) and watered twice daily. After 13 days for pre and post-emergence, the test is evaluated for the percentage damage caused to the plant. The biological activities are shown in the following table on a five-point scale (5=81-100%; 4=61-80%; 3=41-60%; 2=21-40%; 1=0-20%).

[2] = tested on: Amaranthus retoflexus (AMARE); test: Post-emergence herbicidal test, glasshouse
Procedure: as §1

[3] = tested on: Echinochloa crus-galli (ECHCG); test: Post-emergence herbicidal test, glasshouse
Procedure: as §1

[4] = tested on: Ipomoea hederacea (IPOHE); test: Post-emergence herbicidal test, glasshouse
Procedure: as §1

[5] = tested on: Amaranthus palmeri (AMAPA); test: Pre-emergence herbicidal test, glasshouse
Procedure: as §1

[6] = tested on: Amaranthus retoflexus (AMARE); test: Pre-emergence herbicidal test, glasshouse
Procedure: as §1

[7] = tested on: Echinochloa crus-galli (ECHCG); test: Pre-emergence herbicidal test, glasshouse
Procedure: as §1

[8] = tested on: Ipomoea hederacea (IPOHE); test: Pre-emergence herbicidal test, glasshouse
Procedure: as §1

SMILES	AMAPA percentage damage caused to the plant (five-point scale) [1]	AMARE percentage damage caused to the plant (five-point scale) [2]	ECHCG percentage damage caused to the plant (five-point scale) [3]	IPOHE percentage damage caused to the plant (five-point scale) [4]	AMAPA percentage damage caused to the plant (five-point scale) [5]	AMARE percentage damage caused to the plant (five-point scale) [6]	ECHCG percentage damage caused to the plant (five-point scale) [7]	IPOHE percentage damage caused to the plant (five-point scale) [8]
CS(=O)(=O)c1ccc(-n2nc(C(F)F)cc2Cc2ncc(Cl)cn2)cc1 [Compound 1.027]	5 (5=81-100%)	5 (5=81-100%)	5 (5=81-100%)	5 (5=81-100%)	5 (5=81-100%)	5 (5=81-100%)	5 (5=81-100%)	5 (5=81-100%)
Fc1ccc(-n2nc(C(F)F)cc2Cc2ncc(Cl)cn2)cc1F [Compound 1.032, 5-chloro-2-[[5-(difluoromethyl)-2-(3,4-difluorophenyl)pyrazol-3-yl]methyl]pyrimidine]	5 (5=81-100%)	5 (5=81-100%)	4 (4=61-80%)	4 (4=61-80%)	5 (5=81-100%)	5 (5=81-100%)	5 (5=81-100%)	5 (5=81-100%)
N#Cc1ccc(-n2nc(C(F)F)cc2Cc2ncc(Cl)cn2)cc1 [Compound 1.028]	5 (5=81-100%)	5 (5=81-100%)	5 (5=81-100%)	4 (4=61-80%)	5 (5=81-100%)	5 (5=81-100%)	5 (5=81-100%)	5 (5=81-100%)
FC(F)(F)c1cc(Cc2ncc(Cl)cn2)n(-c2ccc(Cl)nc2)n1 [Compound 1.009]	5 (5=81-100%)	5 (5=81-100%)	5 (5=81-100%)	4 (4=61-80%)	5 (5=81-100%)	5 (5=81-100%)	5 (5=81-100%)	5 (5=81-100%)
FC(F)(Cl)c1cc(Cc2ncc(Cl)cn2)n(-c2cnc(Cl)c(Cl)c2)n1 [Compound 1.023]	5 (5=81-100%)	5 (5=81-100%)	4 (4=61-80%)	3 (3=41-60%)	5 (5=81-100%)	5 (5=81-100%)	5 (5=81-100%)	5 (5=81-100%)
N#Cc1cc(Cc2ncc(Cl)cn2)n(-c2ccc(Cl)nc2)n1 [Compound 1.020]	5 (5=81-100%)	5 (5=81-100%)	5 (5=81-100%)	4 (4=61-80%)	5 (5=81-100%)	5 (5=81-100%)	5 (5=81-100%)	5 (5=81-100%)
N#Cc1ccc(-n2nc(C#N)cc2Cc2ncc(Cl)cn2)cn1 [Compound 1.019]	5 (5=81-100%)	5 (5=81-100%)	4 (4=61-80%)	3 (3=41-60%)	5 (5=81-100%)	5 (5=81-100%)	4 (4=61-80%)	5 (5=81-100%)
Clc1cnc(Cc2cc(I)nn2-c2ccc(Cl)nc2)nc1 [Compound 1.021]	5 (5=81-100%)	5 (5=81-100%)	5 (5=81-100%)	4 (4=61-80%)	5 (5=81-100%)	5 (5=81-100%)	5 (5=81-100%)	5 (5=81-100%)
FC(F)c1cc(Cc2ncc(Cl)cn2)n(-c2cnc(Cl)c(Cl)c2)n1 [Compound 1.030]	5 (5=81-100%)	5 (5=81-100%)	4 (4=61-80%)	4 (4=61-80%)	5 (5=81-100%)	5 (5=81-100%)	5 (5=81-100%)	4 (4=61-80%)
Fc1ccc(-n2nc(C(F)F)cc2Cc2ncc(Cl)cn2)cc1 [Compound 1.033]	5 (5=81-100%)	5 (5=81-100%)	4 (4=61-80%)	4 (4=61-80%)	5 (5=81-100%)	5 (5=81-100%)	5 (5=81-100%)	5 (5=81-100%)
Fc1ccc(-n2nc(C(F)(F)Cl)cc2Cc2ncc(Cl)cn2)cc1F [Compound 1.024]	5 (5=81-100%)	5 (5=81-100%)	5 (5=81-100%)	4 (4=61-80%)	5 (5=81-100%)	5 (5=81-100%)	5 (5=81-100%)	5 (5=81-100%)
FC(F)c1cc(Cc2ncc(Cl)cn2)n(-c2ccc(Cl)cc2)n1 [Compound 1.029]	5 (5=81-100%)	5 (5=81-100%)	4 (4=61-80%)	4 (4=61-80%)	5 (5=81-100%)	5 (5=81-100%)	5 (5=81-100%)	5 (5=81-100%)
FC(F)c1cc(Cc2ncc(Cl)cn2)n(-c2cccc(Cl)c2)n1 [Compound 1.031]	4 (4=61-80%)	5 (5=81-100%)	4 (4=61-80%)	4 (4=61-80%)	5 (5=81-100%)	5 (5=81-100%)	5 (5=81-100%)	5 (5=81-100%)
FC(F)(F)c1ccc(-n2nc(C(F)(F)F)c(Cl)c2Cc2ncc(Br)cn2)cc1 [Compound 1.034, 5-bromo-2-[[4-chloro-5-(trifluoromethyl)-2-[4-(trifluoromethyl)phenyl]pyrazol-3-yl]methyl]pyrimidine]	5 (5=81-100%)	4 (4=61-80%)	4 (4=61-80%)	4 (4=61-80%)	5 (5=81-100%)	5 (5=81-100%)	5 (5=81-100%)	5 (5=81-100%)
FC(F)(Cl)c1cc(Cc2ncc(Cl)cn2)n(-c2ccc(Cl)nc2)n1 [Compound 1.022]	5 (5=81-100%)	5 (5=81-100%)	5 (5=81-100%)	3 (3=41-60%)	5 (5=81-100%)	5 (5=81-100%)	5 (5=81-100%)	5 (5=81-100%)

Reference: patent US20250042876A1, “HERBICIDAL PYRAZOLE PYRIMIDINE COMPOUNDS” (SYNGENTA CROP PROTECTION AG, priority 2021, published 2025)
